Measured values published in patent publication US8541573B2, “Substituted sulfonamide compounds” (Gruenenthal GmbH, priority 2008, dated 2013).

Legend:
[1] = molecular target: T1, B1R of rats (Rattus norvegicus, UniProt P97583); assay: Functional investigation on the bradykinin 1 receptor (B1R), cell-based fluorescent calcium-mobilization assay (FLIPR/Novostar), rat; conditions: 10 μM test substance; CHO K1 cells stably transfected with rat B1R gene; agonist Des-Arg9-bradykinin at EC80; % inhibition compared with maximum achievable inhibition; read-out: B1R antagonism, rat [10 μM] % inhibition
T1 construct: expressed in transfected cells; host or cells: CHO K1 cells
T1 sequence (P97583 1-337): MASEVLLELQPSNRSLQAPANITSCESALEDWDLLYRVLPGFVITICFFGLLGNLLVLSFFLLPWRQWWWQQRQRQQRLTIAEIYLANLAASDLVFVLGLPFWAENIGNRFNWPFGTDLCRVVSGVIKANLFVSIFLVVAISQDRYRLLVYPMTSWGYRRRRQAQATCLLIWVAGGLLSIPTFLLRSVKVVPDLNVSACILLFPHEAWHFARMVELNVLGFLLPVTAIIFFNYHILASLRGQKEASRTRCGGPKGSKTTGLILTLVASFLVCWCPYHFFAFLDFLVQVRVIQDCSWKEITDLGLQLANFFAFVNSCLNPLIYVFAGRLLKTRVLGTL
Protocol: (§1) The agonistic or antagonistic action of substances can be quantified on the bradykinin 1 receptor (B1R) of the human and rat species with ectopically expressing cell lines (CHO K1 cells) and with the aid of a Ca^2+-sensitive dyestuff (Fluo-4) in a fluorescent imaging plate reader (FLIPR). The figure in % activation is based on the Ca^2+ signal after addition of Lys-Des-Arg^9-bradykinin (0.5 nM) or Des-Arg^9-bradykinin (100 nM). Antagonists lead to a suppression of the Ca^2+ inflow after addition of the agonist. % inhibition compared with the maximum achievable inhibition is stated.
(§2) The agonistic or antagonistic action of substances can be determined on the bradykinin 1 receptor (B1R) of humans and rats by means of a cell-based flourescent calcium-mobilization assay. According to this assay agonist-induced increase of intracellular free Ca^2+ is quantified by means of a Ca^2+-sensitive dye (Fluo-4 type, Molecular Probes Europe BV, Leiden, Netherlands), in a Fluorescent Imaging Plate Reader (FLIPR, Molecular Devices, Sunnyvale, USA) and/or the Novostar (BMG Labtech GmbH, Offenburg, Germany).
(§3) Chinese hamster ovary cells (CHO K1 cells), which are stably transfected with the human B1R gene (hB1R cells) or with the B1R gene of rats (rB1R cells), are used. For functional investigations these cells are seeded into black 96-well plates with a clear bottom (BD Biosciences, Heidelberg, Germany or Greiner, Frickenhausen, Germany) in a density of 20,000-35,000 cells/well. The cells are incubated overnight in a humidified atmosphere at 37° C. and 5% CO2 in culture medium (hB1R cells: Nutrient Mixture Ham's F12, Gibco Invitrogen GmbH, Karlsruhe, Germany or DMEM, Sigma-Aldrich, Taufkirchen, Germany; rB1R cells: D-MEM/F12, Gibco Invitrogen GmbH, Karlsruhe, Germany) with 10 vol. % FBS (foetal bovine serum, Gibco Invitrogen GmbH, Karlsruhe, Germany).
(§4) On the following day the cells are loaded with the Ca^2+-sensitive dye Fluo-4-AM (Molecular Probes Europe BV, Leiden, Netherlands):
(§5) Method A: The medium of the cells is removed and cell plates are incubated with loading solution, which contains 2.13 μM Fluo-4-AM, 2.5 mM probenecid (Sigma-Aldrich, Taufkirchen, Germany), and 10 mM HEPES (Sigma-Aldrich, Taufkirchen, Germany) in HBSS buffer (Hank's buffered saline solution, Gibco Invitrogen GmbH, Karlsruhe, Germany) for 60 minutes at 37° C. After the plates are washed twice with HBSS buffer, HBSS buffer supplemented 0.1% BSA (bovine serum albumin; Sigma-Aldrich, Taufkirchen, Germany), 5.6 mM glucose and 0.05% gelatine (Merck KGaA, Darmstadt, Germany) is added. Cell plates are incubated for at least 20 minutes in the dark at room temperature before they are used for the Ca^2+ measurement in the FLIPR or Novostar.
(§6) Method B: The plates are washed with buffer A (15 mM HEPES, 80 mM NaCl, 5 mM KCl, 1.2 mM CaCl2, 0.7 mM MgSO4, 2 mg/ml glucose, 2.5 mM probenecid) and subsequently loaded with buffer A containing 2.4 μM Fluo-4-AM and 0.025% pluronic F127 (Sigma-Aldrich, Taufkirchen, Germany) for 60 minutes at 37° C. Cell plates are washed twice with buffer A. Then, buffer A supplemented with 0.05% BSA and 0.05% gelatine is added and cell plates are incubated in the dark at room temperature for at least 20 minutes before measurement in the FLIPR or Novostar is started.
(§7) The Ca^2+-dependent fluorescence is measured both before and after the addition of substances (λex=488 nm, λem=540 nm). For quantification of the effect the highest fluorescence intensity (FC, fluorescence counts) over time is given. The FLIPR protocol consists of two substance additions, done within the instrument while continuously monitoring the Ca^2+-dependent fluorescence at 540 nm. When the Novostar was used, one addition had to be done outside the instrument. Test substances (10 μM) are initially pipetted onto the cells and the intracellular Ca^2+ rise is compared with the control (hB1R: Lys-Des-Arg9-bradykinin>=50 nM; rB1R: Des-Arg9-bradykinin>=1 μM). […]

[2] = molecular target: T2, human B1R (Homo sapiens, UniProt P46663); assay: Functional investigation on the bradykinin 1 receptor (B1R), cell-based fluorescent calcium-mobilization assay (FLIPR/Novostar), human; conditions: 10 μM test substance; CHO K1 cells stably transfected with human B1R gene; agonist Lys-Des-Arg9-bradykinin at EC80; % inhibition compared with maximum achievable inhibition; read-out: B1R antagonism, human [10 μM] % inhibition
T2 construct: expressed in transfected cells; host or cells: CHO K1 cells
T2 sequence (P46663 1-353): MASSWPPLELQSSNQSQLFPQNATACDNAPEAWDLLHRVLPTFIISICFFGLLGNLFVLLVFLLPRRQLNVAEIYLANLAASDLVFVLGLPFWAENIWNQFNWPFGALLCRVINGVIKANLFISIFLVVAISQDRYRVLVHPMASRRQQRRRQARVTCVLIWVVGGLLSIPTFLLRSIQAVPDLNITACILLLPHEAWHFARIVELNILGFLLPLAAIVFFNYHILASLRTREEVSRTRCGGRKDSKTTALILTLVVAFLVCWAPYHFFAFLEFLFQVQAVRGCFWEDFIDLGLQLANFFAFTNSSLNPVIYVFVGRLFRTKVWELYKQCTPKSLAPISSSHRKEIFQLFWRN
Protocol: as §1, §2, §3, §4, §5, §6, §7

Row | Structure (SMILES) | inhibition at 10 µM [1] | inhibition at 10 µM [2]
1 | CN1CCN(C2(CNC(=O)c3ccccc3)CCN(C(=O)CC(NS(=O)(=O)c3ccc4ccccc4c3)c3ccccc3)CC2)CC1 (stereo not drawn) [Example 16, N-((4-(4-methylpiperazin-1-yl)-1-(3-(naphthalene-2-sulfonamido)-3-phenylpropanoyl)piperidin-4-yl)methyl)benzamide] | 31% | 94%
2 | Cc1cc(S(=O)(=O)N2CCCCC2CCC(=O)N2CCC(CNC(=O)c3ccccn3)(N3CCN(C)CC3)CC2)c(C)cc1Cl (stereo not drawn) [Example 9, N-((1-(3-(1-(4-chloro-2,5-dimethylphenylsulfonyl)piperidin-2-yl)propanoyl)-4-(4-methylpiperazin-1-yl)piperidin-4-yl)methyl)picolinamide] | 11% | 99%
3 | CN1CCN(C2(CNC(=O)c3ccncc3)CCN(C(=O)CC3CCCCN3S(=O)(=O)c3cccc(C(F)(F)F)c3)CC2)CC1 (stereo not drawn) [Example 29, N-((4-(4-methylpiperazin-1-yl)-1-(2-(1-(3-(trifluoromethyl)phenylsulfonyl)-piperidin-2-yl)acetyl)piperidin-4-yl)methyl)isonicotinamide] | 33% | 67%
4 | CC(=O)NCC1(N2CCN(c3ccncc3)CC2)CCN(C(=O)COCC2CCc3ccccc3N2S(=O)(=O)c2ccc(Cl)c(Cl)c2)CC1 (stereo not drawn) [Example 17, N-((1-(2-((1-(3,4-dichlorophenylsulfonyl)-1,2,3,4-tetrahydroquinolin-2-yl)methoxy)acetyl)-4-(4-(pyridin-4-yl)piperazin-1-yl)piperidin-4-yl)methyl)acetamide] | 101% | 104%

The next lines start with the values.

Row | inhibition at 10 µM [1] | inhibition at 10 µM [2] | Structure (SMILES)
5 | 102% | 100% | COc1cc(C)c(S(=O)(=O)N2CCCCC2COCCC(=O)N2CCC(CNC(=O)c3ccncc3)(N3CCN(C)CC3)CC2)c(C)c1 (stereo not drawn) [Example 52, N-((1-(3-((1-(4-Methoxy-2,6-dimethylphenylsulfonyl)piperidin-2-yl)methoxy)propanoyl)-4-(4-methylpiperazin-1-yl)piperidin-4-yl)methyl)isonicotinamide]
6 | 102% | 103% | COc1cc(C)c(S(=O)(=O)N2CCCCC2COCC(=O)N2CCC(CNC(C)=O)(N3CCN(C)CC3)CC2)c(C)c1 (stereo not drawn) [Example 27, N-((1-(2-((1-(4-methoxy-2,6-dimethylphenylsulfonyl)piperidin-2-yl)methoxy)acetyl)-4-(4-methylpiperazin-1-yl)piperidin-4-yl)methyl)acetamide]
7 | 104% | 103% | COc1cc(C)c(S(=O)(=O)N2CCCCC2COCC(=O)N2CCC(CNC(=O)Cc3ccccc3)(N3CCN(C)CC3)CC2)c(C)c1 (stereo not drawn) [Example 3, N-((1-(2-((1-(4-methoxy-2,6-dimethylphenylsulfonyl)piperidin-2-yl)methoxy)acetyl)-4-(4-methylpiperazin-1-yl)piperidin-4-yl)methyl)-2-phenylacetamide]
8 | 101% | 103% | COc1cc(C)c(S(=O)(=O)N2CCCCC2COCC(=O)N2CCC(CNC(C)=O)(N3CCN(c4ccncc4)CC3)CC2)c(C)c1 (stereo not drawn) [Example 22, N-((1-(2-((1-(4-methoxy-2,6-dimethylphenylsulfonyl)piperidin-2-yl)methoxy)acetyl)-4-(4-(pyridin-4-yl)piperazin-1-yl)piperidin-4-yl)methyl)acetamide]
9 | 101% | 107% | COc1cc(C)c(S(=O)(=O)N(C)CCOCC(=O)N2CCC(CNC(=O)c3ccncc3)(N3CCN(C)CC3)CC2)c(C)c1 [Example 1, N-((1-(2-(2-(4-methoxy-N,2,6-trimethylphenylsulfonamido)ethoxy)acetyl)-4-(4-methylpiperazin-1-yl)piperidin-4-yl)methyl)isonicotinamide]
